Measured values: ChEMBL document CHEMBL3797119, “Pharmacokinetic Study of Two Macrolide Antibiotic Oral Suspensions Using an Optimized Bioassay Procedure” (J Bioequivalence Bioavailab, 2010)

What was measured:
Type in all cases: ADME, organism-based
Details in all cases: in vivo
[1] = Cmax in healthy human (24 volunteers) at 500 mg, po test formulation of drug administered as single dose measured after 0.5 to 72 hrs; set-up: dose 500 mg, route oral
Homo sapiens [2] = assay: Ratio of Cmax in healthy human (24 volunteers) at 500 mg, po test formulation of drug administered as single dose to Cmax in healthy human (24 volunteers) at 500 mg, po reference formulation of drug administered as single dose
[3] = Tmax in healthy human (24 volunteers) at 500 mg, po test formulation of drug administered as single dose
[4] = Half life in healthy human (24 volunteers) at 500 mg, po test formulation of drug administered as single dose
[5] = AUC (0 to t) in healthy human (24 volunteers) at 500 mg, po test formulation of drug administered as single dose measured after 0.5 to 72 hrs; set-up: time upper 72 hr, time lower 0.5 hr, dose 500 mg, route oral
[6] = Elimination rate constant from central compartment in healthy human (24 volunteers) at 500 mg, po test formulation of drug administered as single dose by two-compartmental open model
Homo sapiens [7] = assay: First order inter-compartment transfer rate constant from central to peripheral compartment in healthy human (24 volunteers) at 500 mg, po reference formulation of drug administered as single dose by two-compartmental open model
Homo sapiens [8] = assay: First order inter-compartment transfer rate constant from peripheral to central compartment in healthy human (24 volunteers) at 500 mg, po reference formulation of drug administered as single dose by two-compartmental open model
Homo sapiens [9] = assay: Volume of distribution in healthy human (24 volunteers) at 500 mg, po reference formulation of drug administered as single dose by two-compartmental open model
Homo sapiens [10] = assay: Volume of distribution in healthy human (24 volunteers) at 500 mg, po test formulation of drug administered as single dose by two-compartmental open model
[11] = Clearance in healthy human (24 volunteers) at 500 mg, po test formulation of drug administered as single dose by two-compartmental open model
[12] = Half life in healthy human (24 volunteers) at 500 mg, po reference formulation of drug administered as single dose
[13] = Cmax in healthy human (24 volunteers) at 500 mg, po reference formulation of drug administered as single dose measured after 0.5 to 72 hrs; set-up: dose 500 mg, route oral
Homo sapiens [14] = assay: Ratio of AUC (0 to infinity) in healthy human (24 volunteers) at 500 mg, po test formulation of drug administered as single dose to AUC (0 to t) in healthy human (24 volunteers) at 500 mg, po reference formulation of drug administered as single dose
[15] = Clearance in healthy human (24 volunteers) at 500 mg, po reference formulation of drug administered as single dose by two-compartmental open model
Homo sapiens [16] = assay: Ratio of AUC (0 to t) in healthy human (24 volunteers) at 500 mg, po test formulation of drug administered as single dose to AUC (0 to t) in healthy human (24 volunteers) at 500 mg, po reference formulation of drug administered as single dose
[17] = Elimination rate constant from central compartment in healthy human (24 volunteers) at 500 mg, po reference formulation of drug administered as single dose by two-compartmental open model
Homo sapiens [18] = assay: First order inter-compartment transfer rate constant from peripheral to central compartment in healthy human (24 volunteers) at 500 mg, po test formulation of drug administered as single dose by two-compartmental open model
[19] = AUC (0 to t) in healthy human (24 volunteers) at 500 mg, po reference formulation of drug administered as single dose measured after 0.5 to 72 hrs; set-up: time upper 72 hr, dose 500 mg, time lower 0.5 hr, route oral
[20] = AUC (0 to infinity) in healthy human (24 volunteers) at 500 mg, po reference formulation of drug administered as single dose measured after 0.5 to 72 hrs; set-up: dose 500 mg, time infinity, route oral
Homo sapiens [21] = assay: First order inter-compartment transfer rate constant from central to peripheral compartment in healthy human (24 volunteers) at 500 mg, po test formulation of drug administered as single dose by two-compartmental open model
[22] = AUC (0 to infinity) in healthy human (24 volunteers) at 500 mg, po test formulation of drug administered as single dose measured after 0.5 to 72 hrs; set-up: dose 500 mg, route oral, time infinity
[23] = Tmax in healthy human (24 volunteers) at 500 mg, po reference formulation of drug administered as single dose
Homo sapiens [24] = assay: Ratio of AUC (0 to infinity) in healthy human (24 volunteers) at 400 mg, po test formulation of drug administered as single dose to AUC (0 to t) in healthy human (24 volunteers) at 400 mg, po reference formulation of drug administered as single dose
Homo sapiens [25] = assay: First order inter-compartment transfer rate constant from central to peripheral compartment in healthy human (24 volunteers) at 400 mg, po reference formulation of drug administered as single dose by two-compartmental open model
Homo sapiens [26] = assay: First order inter-compartment transfer rate constant from peripheral to central compartment in healthy human (24 volunteers) at 400 mg, po test formulation of drug administered as single dose by two-compartmental open model
[27] = AUC (0 to t) in healthy human (24 volunteers) at 400 mg, po reference formulation of drug administered as single dose measured after 0.5 to 10 hrs; set-up: time lower 0.5 hr, dose 400 mg, time upper 10 hr, route oral
[28] = Half life in healthy human (24 volunteers) at 400 mg, po test formulation of drug administered as single dose
[29] = Tmax in healthy human (24 volunteers) at 400 mg, po test formulation of drug administered as single dose
Homo sapiens [30] = assay: Ratio of AUC (0 to t) in healthy human (24 volunteers) at 400 mg, po test formulation of drug administered as single dose to AUC (0 to t) in healthy human (24 volunteers) at 400 mg, po reference formulation of drug administered as single dose
Homo sapiens [31] = assay: Volume of distribution in healthy human (24 volunteers) at 400 mg, po reference formulation of drug administered as single dose by two-compartmental open model
[32] = AUC (0 to infinity) in healthy human (24 volunteers) at 400 mg, po test formulation of drug administered as single dose measured after 0.5 to 10 hrs; set-up: dose 400 mg, time infinity, route oral
[33] = Elimination rate constant from central compartment in healthy human (24 volunteers) at 400 mg, po test formulation of drug administered as single dose by two-compartmental open model
[34] = AUC (0 to t) in healthy human (24 volunteers) at 400 mg, po test formulation of drug administered as single dose measured after 0.5 to 10 hrs; set-up: time 0.5-10 hr, dose 400 mg, route oral
[35] = Clearance in healthy human (24 volunteers) at 400 mg, po reference formulation of drug administered as single dose by two-compartmental open model
[36] = Tmax in healthy human (24 volunteers) at 400 mg, po reference formulation of drug administered as single dose
[37] = Elimination rate constant from central compartment in healthy human (24 volunteers) at 400 mg, po reference formulation of drug administered as single dose by two-compartmental open model
[38] = Clearance in healthy human (24 volunteers) at 400 mg, po test formulation of drug administered as single dose by two-compartmental open model
[39] = Half life in healthy human (24 volunteers) at 400 mg, po reference formulation of drug administered as single dose
Homo sapiens [40] = assay: First order inter-compartment transfer rate constant from peripheral to central compartment in healthy human (24 volunteers) at 400 mg, po reference formulation of drug administered as single dose by two-compartmental open model
[41] = AUC (0 to infinity) in healthy human (24 volunteers) at 400 mg, po reference formulation of drug administered as single dose measured after 0.5 to 10 hrs; set-up: dose 400 mg, route oral, time infinity
[42] = Cmax in healthy human (24 volunteers) at 400 mg, po test formulation of drug administered as single dose measured after 0.5 to 10 hrs; set-up: dose 400 mg, route oral
Homo sapiens [43] = assay: Volume of distribution in healthy human (24 volunteers) at 400 mg, po test formulation of drug administered as single dose by two-compartmental open model
Homo sapiens [44] = assay: Ratio of Cmax in healthy human (24 volunteers) at 400 mg, po test formulation of drug administered as single dose to Cmax in healthy human (24 volunteers) at 400 mg, po reference formulation of drug administered as single dose
Homo sapiens [45] = assay: First order inter-compartment transfer rate constant from central to peripheral compartment in healthy human (24 volunteers) at 400 mg, po test formulation of drug administered as single dose by two-compartmental open model
[46] = Cmax in healthy human (24 volunteers) at 400 mg, po reference formulation of drug administered as single dose measured after 0.5 to 10 hrs; set-up: dose 400 mg, route oral

Q: What does the source list for `CC[C@@H]1OC(=O)[C@H](C)[C@@H](O[C@@H]2C[C@](C)(OC)[C@H](O)[C@@H](C)O2)[C@@H](C)[C@@H](O[C@@H]2O[C@H](C)C[C@H](N(C)C)[C@H]2O)[C@](C)(O)C[C@@H](C)CN(C)[C@H](C)[C@@H](O)[C@]1(C)O`?
A: Cmax [1]: 486 ng/mL; Ratio (Homo sapiens [2]): 1; Tmax [3]: 1.96 h; half-life [4]: 25 h; AUC(0-t) [5]: 7580 ng·h/mL; k el [6]: 2.5e-05 s⁻¹; K (Homo sapiens [7]): 0.405 h⁻¹; K (Homo sapiens [8]): 0.103 h⁻¹; Vd (Homo sapiens [9]): 36.8 L/kg; Vd (Homo sapiens [10]): 32.2 L/kg; CL/F [11]: 139 mL/min/kg; half-life [12]: 25.2 h; Cmax [13]: 488 ng/mL; Ratio AUC (Homo sapiens [14]): 0.96; CL/F [15]: 103 mL/min/kg; Ratio AUC (Homo sapiens [16]): 0.95; k el [17]: 2.72e-05 s⁻¹; K (Homo sapiens [18]): 0.084 h⁻¹; AUC(0-t) [19]: 8050 ng·h/mL; AUC(0-inf) [20]: 8440 ng·h/mL; K (Homo sapiens [21]): 0.419 h⁻¹; AUC(0-inf) [22]: 7990 ng·h/mL; Tmax [23]: 2.08 h

Q: With `CC[C@H]1OC(=O)[C@H](C)[C@@H](O[C@H]2C[C@@](C)(OC)[C@@H](O)[C@H](C)O2)[C@H](C)[C@@H](O[C@@H]2O[C@H](C)C[C@H](N(C)C)[C@H]2O)[C@](C)(O)C[C@@H](C)C(=O)[C@H](C)[C@@H](O)[C@]1(C)O` [ERYTHROMYCIN] as the molecule, how does the “Ratio AUC” value (Homo sapiens [24]) read?
A: 1.04

Q: And the K (Homo sapiens [25])?
A: 1.34 h⁻¹

Q: And the K (Homo sapiens [26])?
A: 0.415 h⁻¹

Q: What about the AUC(0-t) [27] of the same molecule?
A: 4010 ng·h/mL

Q: What about the half-life [28] of the same molecule?
A: 3.64 h

Q: What about the Tmax [29] of the same molecule?
A: 1.4 h

Q: And the “Ratio AUC” value (Homo sapiens [30])?
A: 1.03

Q: And the Vd (Homo sapiens [31])?
A: 8.8 L/kg

Q: What about the AUC(0-inf) [32] of the same molecule?
A: 4850 ng·h/mL

Q: And the k el [33]?
A: 0.000229 s⁻¹

Q: And the AUC(0-t) [34]?
A: 4020 ng·h/mL

Q: And the CL/F [35]?
A: 23.3 mL/min/kg

Q: What about the Tmax [36] of the same molecule?
A: 1.38 h

Q: What about the k el [37] of the same molecule?
A: 0.000123 s⁻¹

Q: What about the CL/F [38] of the same molecule?
A: 225 mL/min/kg

Q: And the half-life [39]?
A: 3.61 h

Q: And the K (Homo sapiens [40])?
A: 1.23 h⁻¹

Q: And the AUC(0-inf) [41]?
A: 4790 ng·h/mL

Q: And the Cmax [42]?
A: 1170 ng/mL

Q: What about the Vd (Homo sapiens [43]) of the same molecule?
A: 10.4 L/kg

Q: And the Ratio (Homo sapiens [44])?
A: 1.07

Q: What about the K (Homo sapiens [45]) of the same molecule?
A: 2.26 h⁻¹

Q: And the Cmax [46]?
A: 1120 ng/mL
